For eight compounds, IC50 results are on record in patent US20220356174A1, “PYRIDIN-2-ONE COMPOUNDS USEFUL AS SMARCA2 ANTAGONISTS” (Epizyme, Inc., priority 2018, published 2022).

The subject of test [1] is A549 cells. The test is described as follows: Long term proliferation (LTP) assay, day 15 IC50 in A549 cells. Type of test: cell-based. To be noted: Homo sapiens, 360 h.
Test [2] concerns the target T1, FL-SMARCA2 (full-length human SMARCA2 isoform 1) (Homo sapiens, UniProt P51531).
T1 construct: FLAG tag (YKDDDDK) (C); made in house; host or cells: Sf21 insect cells (baculovirus, pFastBacI)
As to the kind of experiment: SMARCA2 ATPase activity assay (ADP-Glo, chicken mononucleosome substrate). Type of test: biochemical. To be noted: Table 3.1; ATPase assay, enzyme 5 nM, ATP 250 uM, chicken mononucleosome 10 nM, 30 min preincubation.

Test [3] deals with A549 cells. As to the kind of experiment: High-throughput proliferation (HTP) assay for A549 cells (CellTiter-Glo, 7 days). Type of test: cell-based. As to conditions: Homo sapiens, 168 h, read-out: A549 SMARCA2 IC50. The method in brief: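 Seven-day growth of A549 (62.5 cells/well, F12K with 10% HI-FBS, 37° C.) with compound, read by CellTiter-Glo ATP luminescence. Percent inhibition scaled between DMSO wells and 10 μM Doxorubicin wells, then fitted for EC50 and IC50.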
For orientation: Cellular ATP, detected with luciferase, serves as a proxy for viable cell number.

Test [4] deals with FL-SMARCA4 (Homo sapiens, UniProt P51532). As to the kind of experiment: SMARCA4 ATPase activity assay (ADP-Glo, chicken mononucleosome substrate). To be noted: FL-SMARCA4 IC50, Table 3.2; ATPase assay, enzyme 5 nM, ATP 250 uM, chicken mononucleosome 10 nM, 30 min preincubation. Background: In ADP-Glo the light output rises with the ADP produced.
FL-SMARCA4, sequence (P51532 whole entry): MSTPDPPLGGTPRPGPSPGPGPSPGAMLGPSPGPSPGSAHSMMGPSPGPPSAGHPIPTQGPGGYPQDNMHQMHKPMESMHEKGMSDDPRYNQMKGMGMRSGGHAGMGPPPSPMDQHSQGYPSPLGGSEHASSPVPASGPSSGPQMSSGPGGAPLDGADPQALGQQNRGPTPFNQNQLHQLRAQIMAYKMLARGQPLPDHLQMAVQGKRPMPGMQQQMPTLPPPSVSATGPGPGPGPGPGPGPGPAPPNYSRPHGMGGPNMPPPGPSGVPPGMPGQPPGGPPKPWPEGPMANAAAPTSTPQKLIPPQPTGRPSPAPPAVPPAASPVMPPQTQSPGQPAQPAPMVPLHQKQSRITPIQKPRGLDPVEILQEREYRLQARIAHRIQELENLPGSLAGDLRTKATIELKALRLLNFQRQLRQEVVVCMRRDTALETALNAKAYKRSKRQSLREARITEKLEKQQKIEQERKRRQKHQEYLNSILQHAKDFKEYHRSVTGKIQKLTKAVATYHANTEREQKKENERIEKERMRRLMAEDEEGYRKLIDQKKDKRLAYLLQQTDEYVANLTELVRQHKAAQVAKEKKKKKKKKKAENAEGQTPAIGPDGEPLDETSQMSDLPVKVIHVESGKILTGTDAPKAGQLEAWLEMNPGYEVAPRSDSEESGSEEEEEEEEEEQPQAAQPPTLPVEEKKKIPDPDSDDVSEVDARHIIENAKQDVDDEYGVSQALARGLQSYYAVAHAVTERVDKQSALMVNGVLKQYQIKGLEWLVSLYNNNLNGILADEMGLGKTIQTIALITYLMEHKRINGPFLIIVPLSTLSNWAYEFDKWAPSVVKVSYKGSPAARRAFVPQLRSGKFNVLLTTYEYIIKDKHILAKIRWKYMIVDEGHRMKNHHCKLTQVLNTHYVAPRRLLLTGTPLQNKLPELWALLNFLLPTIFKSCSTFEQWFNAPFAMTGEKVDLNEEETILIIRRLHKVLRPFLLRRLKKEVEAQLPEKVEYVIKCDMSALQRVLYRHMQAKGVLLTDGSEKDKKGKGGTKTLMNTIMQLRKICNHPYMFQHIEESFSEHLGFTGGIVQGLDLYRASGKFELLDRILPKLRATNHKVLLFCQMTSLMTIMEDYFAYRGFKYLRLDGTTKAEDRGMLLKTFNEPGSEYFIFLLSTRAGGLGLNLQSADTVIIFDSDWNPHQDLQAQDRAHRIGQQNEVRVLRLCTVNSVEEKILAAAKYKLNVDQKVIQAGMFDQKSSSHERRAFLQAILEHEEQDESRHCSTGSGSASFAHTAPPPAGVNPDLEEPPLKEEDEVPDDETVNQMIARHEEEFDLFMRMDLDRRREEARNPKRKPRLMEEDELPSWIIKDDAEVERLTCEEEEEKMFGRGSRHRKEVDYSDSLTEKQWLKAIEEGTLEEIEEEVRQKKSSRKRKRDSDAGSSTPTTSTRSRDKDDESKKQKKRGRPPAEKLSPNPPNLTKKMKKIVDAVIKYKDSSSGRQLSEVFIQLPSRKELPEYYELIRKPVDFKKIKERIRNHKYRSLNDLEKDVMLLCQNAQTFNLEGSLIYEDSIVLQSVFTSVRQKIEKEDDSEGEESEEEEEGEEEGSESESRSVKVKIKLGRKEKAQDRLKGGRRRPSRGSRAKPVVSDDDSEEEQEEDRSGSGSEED
The target of test [5] is T2, SMARCA2 (Homo sapiens, UniProt P51531).
T2 construct: FLAG tag (YKDDDDK) (C); made in house; host or cells: Sf21 insect cells (baculovirus, pFastBacI)
T2 sequence (P51531 with tags, fused parts or gaps): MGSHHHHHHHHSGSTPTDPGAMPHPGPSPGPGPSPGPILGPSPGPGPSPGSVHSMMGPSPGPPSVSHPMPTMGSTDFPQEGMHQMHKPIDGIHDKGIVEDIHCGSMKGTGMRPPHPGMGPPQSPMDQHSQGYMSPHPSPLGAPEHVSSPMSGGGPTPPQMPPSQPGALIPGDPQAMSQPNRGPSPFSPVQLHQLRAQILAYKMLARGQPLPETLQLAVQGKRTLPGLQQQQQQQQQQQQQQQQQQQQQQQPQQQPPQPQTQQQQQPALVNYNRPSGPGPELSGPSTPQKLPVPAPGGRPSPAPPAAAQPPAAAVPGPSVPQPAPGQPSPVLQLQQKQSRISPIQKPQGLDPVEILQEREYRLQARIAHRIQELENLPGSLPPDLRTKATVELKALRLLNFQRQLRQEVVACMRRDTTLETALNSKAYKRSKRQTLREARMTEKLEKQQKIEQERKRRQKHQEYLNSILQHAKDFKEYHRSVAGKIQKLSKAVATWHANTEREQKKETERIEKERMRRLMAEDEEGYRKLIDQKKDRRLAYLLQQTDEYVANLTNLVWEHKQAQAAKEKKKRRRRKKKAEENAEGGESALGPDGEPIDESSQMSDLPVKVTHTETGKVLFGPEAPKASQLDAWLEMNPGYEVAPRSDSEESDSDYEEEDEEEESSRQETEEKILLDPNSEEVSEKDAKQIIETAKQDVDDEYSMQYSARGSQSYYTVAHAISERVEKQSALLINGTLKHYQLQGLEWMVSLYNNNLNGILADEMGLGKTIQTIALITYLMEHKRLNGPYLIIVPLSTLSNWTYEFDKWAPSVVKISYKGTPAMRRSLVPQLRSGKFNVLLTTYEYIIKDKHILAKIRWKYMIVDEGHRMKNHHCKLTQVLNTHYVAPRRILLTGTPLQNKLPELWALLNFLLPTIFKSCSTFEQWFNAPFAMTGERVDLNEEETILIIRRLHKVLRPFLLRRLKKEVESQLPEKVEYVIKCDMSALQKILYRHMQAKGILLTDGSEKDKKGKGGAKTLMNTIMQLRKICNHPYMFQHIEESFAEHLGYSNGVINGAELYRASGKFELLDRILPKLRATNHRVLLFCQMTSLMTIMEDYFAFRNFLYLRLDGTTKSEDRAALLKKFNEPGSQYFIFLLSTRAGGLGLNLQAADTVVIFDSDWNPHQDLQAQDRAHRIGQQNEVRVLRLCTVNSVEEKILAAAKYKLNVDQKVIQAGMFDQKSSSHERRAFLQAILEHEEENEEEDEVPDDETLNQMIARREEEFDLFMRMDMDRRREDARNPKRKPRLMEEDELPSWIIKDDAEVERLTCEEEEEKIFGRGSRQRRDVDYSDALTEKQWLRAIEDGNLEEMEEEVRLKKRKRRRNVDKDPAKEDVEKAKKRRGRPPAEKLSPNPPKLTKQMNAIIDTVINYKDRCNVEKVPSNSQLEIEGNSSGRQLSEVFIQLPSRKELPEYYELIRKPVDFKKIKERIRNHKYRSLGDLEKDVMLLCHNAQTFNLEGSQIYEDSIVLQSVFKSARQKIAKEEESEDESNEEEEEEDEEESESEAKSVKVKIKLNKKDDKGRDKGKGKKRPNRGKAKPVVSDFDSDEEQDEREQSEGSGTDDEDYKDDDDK
The test is described as follows: SMARCA2 FRET nucleosome remodeling activity assay. The class given is biochemical. As for the experimental part:
The SMARCA2 remodeling assay was initiated by the addition of 2 uL of a nucleosome remodeling assay substrate and ATP mixture (final volume=10 uL). […] The assays were terminated after 15 minutes by the addition of 2 uL EDTA (final concentration of 25 mM). The SMARCA2 remodeling activity was determined by measuring the fluorescence ratio of the Cy3 and Cy5 labels ([…]). The remodeling of the nucleosome substrate causes an increase in the spacing between the Cy3 and Cy5 labels and therefore a reduction in FRET and an increase in Cy3/Cy5 fluorescence ratio.

The IC50 is the midpoint of a concentration-inhibition curve.

T1 sequence (P51531 with tags, fused parts or gaps): as above

Regarding `O=C(Nc1cc(F)c(=O)n(CCF)c1)c1cc(Cl)c(C(F)(F)F)s1` [Compound 249], the half-inhibitory concentration (IC50) was 323 nM in test [1]; 35.8 nM in test [2]; 734 nM in test [3]; 260 nM in test [4]; 70 nM in test [5].
The corresponding values for `N#Cc1cc(C(=O)Nc2cc(F)c(=O)n(CCF)c2)[nH]n1` [Compound 176] are not below 20000 nM, 55.2 nM, not below 20000 nM, 267 nM and 81.8 nM.
On to `CCn1cc(NC(=O)c2cc(C#N)c(C#N)s2)cc(F)c1=O` [Compound 188], for which the half-inhibitory concentration (IC50) came to 9900 nM in test [1]; 30.5 nM in test [2]; 18100 nM in test [3]; 119 nM in test [4]; 22.2 nM in test [5].
Turning to `N#Cc1ncc(C(=O)Nc2cc(F)c(=O)n(CCF)c2)s1` [Compound 138], the half-inhibitory concentration (IC50) is not below 20000 nM in test [1]; 6.42 nM in test [2]; not below 20000 nM in test [3]; 16.1 nM in test [4]; 14.3 nM in test [5].
`N#Cc1cc(C(=O)Nc2cc(F)c(=O)n(CC(F)(F)F)c2)sc1C#N` [Compound 190]: the IC50 in test [1] was 3900 nM; in test [2], 20.1 nM; in test [3] it was 12000 nM; in test [4] it was 85.1 nM; in test [5], 35 nM.
In the same order, the values of `N#Cc1sc(C(=O)Nc2cc(Cl)c(=O)n(CCF)c2)cc1Cl` [Compound 125, 4-Chloro-N-(5-chloro-1-(2-fluoroethyl)-6-oxo-1,6-dihydropyridin-3-yl)-5-cyanothiophene-2-carboxamide] are 484 nM, 30.9 nM, 1160 nM, 108 nM and 66.1 nM.
Take `O=C(Nc1cc(F)c(=O)n(CCF)c1)c1cnc(C(F)(F)F)s1` [Compound 265]: the IC50 in test [1] came to 851 nM; in test [2], 81.5 nM; in test [3], 7300 nM; in test [4] it was 590 nM; in test [5], 143 nM.
`O=C(Nc1cc(Cl)c(=O)n(CCF)c1)c1cc(Cl)c(Cl)s1` [Compound 101]: the IC50 in test [1] came out at 356 nM; in test [2] it was 74.1 nM; in test [3] it was 2270 nM; in test [4] it was 237 nM; in test [5] it was 314 nM.
